# Columns and labels:
# Experiment in all cases: FRET-based coupled-enzyme protein kinase inhibition assay
# Assay type in all cases: biochemical
# Settings in all cases: compound at 10 µM, 1% DMSO
# MAPK3 (ERK1) = MAPK3 (ERK1) (Homo sapiens, UniProt P27361)
# Procedure, shortened: (§1)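 Inhibition was quantified ratiometrically, as coumarin over fluorescein emission following 400 nm excitation, on a doubly labeled peptide whose cleavage by development reagent requires it to remain unphosphorylated. Kinase reactions ran 60 min at room temperature with ATP at apparent Km.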
# DYRK3 = target: T1, DYRK3 (Homo sapiens, UniProt O43781)
# T1 sequence (O43781 1-588): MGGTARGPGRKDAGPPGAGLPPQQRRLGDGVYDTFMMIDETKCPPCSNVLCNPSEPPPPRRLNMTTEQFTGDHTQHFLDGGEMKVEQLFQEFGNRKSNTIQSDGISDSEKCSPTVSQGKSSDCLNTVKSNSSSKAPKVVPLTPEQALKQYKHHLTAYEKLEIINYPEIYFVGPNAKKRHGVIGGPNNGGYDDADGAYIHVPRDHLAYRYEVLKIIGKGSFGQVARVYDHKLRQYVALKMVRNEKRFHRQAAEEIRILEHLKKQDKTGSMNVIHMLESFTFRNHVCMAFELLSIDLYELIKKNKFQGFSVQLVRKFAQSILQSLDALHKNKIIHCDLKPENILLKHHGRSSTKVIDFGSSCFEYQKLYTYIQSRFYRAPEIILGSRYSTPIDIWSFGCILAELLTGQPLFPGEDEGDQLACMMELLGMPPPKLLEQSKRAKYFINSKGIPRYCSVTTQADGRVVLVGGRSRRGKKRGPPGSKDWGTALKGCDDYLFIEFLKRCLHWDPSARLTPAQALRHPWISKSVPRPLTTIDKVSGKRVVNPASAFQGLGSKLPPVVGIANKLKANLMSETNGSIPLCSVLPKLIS
# Procedure, shortened: as §1
# SYK = SYK (Homo sapiens, UniProt P43405)
# Procedure, shortened: as §1
# AKT1 (PKB alpha) = AKT1 (PKB alpha) (Homo sapiens, UniProt P31749)
# Procedure, shortened: as §1
# MAP4K4 (HGK) = MAP4K4 (HGK) (Homo sapiens, UniProt O95819)
# Procedure, shortened: as §1
# BTK = BTK (Homo sapiens, UniProt Q06187)
# Procedure, shortened: as §1
# CDK1/cyclin B = CDK1/cyclin B (Homo sapiens, UniProt P06493)
# Procedure, shortened: as §1
# PAK4 = PAK4 (Homo sapiens, UniProt O96013)
# Procedure, shortened: as §1
# IGF1R = IGF1R (Homo sapiens, UniProt P08069)
# Procedure, shortened: as §1
# Sequence of MAP4K4 (HGK) (O95819 whole entry, species assumed): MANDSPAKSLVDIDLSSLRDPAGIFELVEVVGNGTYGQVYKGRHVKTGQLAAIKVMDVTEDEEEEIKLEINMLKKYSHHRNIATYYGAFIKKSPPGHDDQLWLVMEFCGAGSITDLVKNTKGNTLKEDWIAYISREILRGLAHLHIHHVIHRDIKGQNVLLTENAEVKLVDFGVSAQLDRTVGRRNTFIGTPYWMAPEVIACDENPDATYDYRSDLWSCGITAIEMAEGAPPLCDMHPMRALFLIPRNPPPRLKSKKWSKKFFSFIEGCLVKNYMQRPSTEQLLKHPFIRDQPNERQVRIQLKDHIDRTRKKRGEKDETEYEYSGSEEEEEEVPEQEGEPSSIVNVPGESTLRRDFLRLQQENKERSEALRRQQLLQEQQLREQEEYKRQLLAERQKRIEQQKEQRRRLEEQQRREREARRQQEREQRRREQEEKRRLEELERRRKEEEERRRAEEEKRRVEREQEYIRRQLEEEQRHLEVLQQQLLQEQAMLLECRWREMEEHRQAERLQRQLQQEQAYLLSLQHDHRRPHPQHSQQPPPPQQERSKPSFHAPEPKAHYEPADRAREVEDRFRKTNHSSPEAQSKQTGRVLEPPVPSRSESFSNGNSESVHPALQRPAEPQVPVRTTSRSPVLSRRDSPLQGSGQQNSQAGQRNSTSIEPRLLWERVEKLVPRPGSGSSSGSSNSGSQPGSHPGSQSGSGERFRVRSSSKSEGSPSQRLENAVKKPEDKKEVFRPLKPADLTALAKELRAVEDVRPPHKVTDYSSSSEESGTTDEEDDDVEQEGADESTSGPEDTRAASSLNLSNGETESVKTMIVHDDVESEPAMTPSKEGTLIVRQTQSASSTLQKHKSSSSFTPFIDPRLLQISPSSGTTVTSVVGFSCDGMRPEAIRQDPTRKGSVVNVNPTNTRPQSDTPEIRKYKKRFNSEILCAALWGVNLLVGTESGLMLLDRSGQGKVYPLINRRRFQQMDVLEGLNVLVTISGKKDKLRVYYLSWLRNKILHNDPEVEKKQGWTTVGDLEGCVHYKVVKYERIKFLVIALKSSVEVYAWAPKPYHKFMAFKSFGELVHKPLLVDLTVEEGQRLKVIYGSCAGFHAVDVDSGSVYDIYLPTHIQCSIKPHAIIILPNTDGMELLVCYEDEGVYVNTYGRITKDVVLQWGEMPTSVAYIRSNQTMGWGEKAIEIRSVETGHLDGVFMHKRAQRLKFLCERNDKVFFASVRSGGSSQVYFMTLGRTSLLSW
# Sequence of PAK4 (O96013 whole entry, species assumed): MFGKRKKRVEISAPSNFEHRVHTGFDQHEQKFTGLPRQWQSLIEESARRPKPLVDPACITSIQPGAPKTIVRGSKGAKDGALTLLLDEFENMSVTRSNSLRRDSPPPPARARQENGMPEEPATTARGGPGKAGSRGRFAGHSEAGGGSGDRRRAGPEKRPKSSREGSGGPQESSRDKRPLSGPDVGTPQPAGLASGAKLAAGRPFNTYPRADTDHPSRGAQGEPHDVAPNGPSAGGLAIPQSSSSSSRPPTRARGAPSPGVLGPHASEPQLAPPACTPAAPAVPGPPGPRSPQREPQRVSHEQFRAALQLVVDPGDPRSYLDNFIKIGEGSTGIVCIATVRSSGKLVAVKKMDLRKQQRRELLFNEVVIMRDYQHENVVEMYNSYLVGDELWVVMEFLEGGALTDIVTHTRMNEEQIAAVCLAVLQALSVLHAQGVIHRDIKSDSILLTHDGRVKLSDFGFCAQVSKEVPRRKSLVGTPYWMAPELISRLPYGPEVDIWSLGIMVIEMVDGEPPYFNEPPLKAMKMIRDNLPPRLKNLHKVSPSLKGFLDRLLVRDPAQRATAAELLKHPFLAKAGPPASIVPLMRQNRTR
# Sequence of AKT1 (PKB alpha) (P31749 whole entry, species assumed): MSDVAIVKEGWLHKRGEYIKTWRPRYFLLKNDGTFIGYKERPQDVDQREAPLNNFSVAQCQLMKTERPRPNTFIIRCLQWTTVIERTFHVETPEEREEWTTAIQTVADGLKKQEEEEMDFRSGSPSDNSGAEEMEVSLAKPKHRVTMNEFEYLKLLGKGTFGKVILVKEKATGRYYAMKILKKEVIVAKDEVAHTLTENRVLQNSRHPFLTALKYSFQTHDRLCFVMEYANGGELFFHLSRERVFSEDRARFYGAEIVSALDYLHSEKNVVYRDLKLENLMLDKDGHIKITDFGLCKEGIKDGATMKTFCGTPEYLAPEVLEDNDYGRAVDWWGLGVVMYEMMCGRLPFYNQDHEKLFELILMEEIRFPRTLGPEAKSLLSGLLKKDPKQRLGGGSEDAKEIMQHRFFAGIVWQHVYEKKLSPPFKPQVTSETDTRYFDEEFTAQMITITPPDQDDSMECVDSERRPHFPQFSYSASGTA
# Sequence of MAPK3 (ERK1) (P27361 whole entry, species assumed): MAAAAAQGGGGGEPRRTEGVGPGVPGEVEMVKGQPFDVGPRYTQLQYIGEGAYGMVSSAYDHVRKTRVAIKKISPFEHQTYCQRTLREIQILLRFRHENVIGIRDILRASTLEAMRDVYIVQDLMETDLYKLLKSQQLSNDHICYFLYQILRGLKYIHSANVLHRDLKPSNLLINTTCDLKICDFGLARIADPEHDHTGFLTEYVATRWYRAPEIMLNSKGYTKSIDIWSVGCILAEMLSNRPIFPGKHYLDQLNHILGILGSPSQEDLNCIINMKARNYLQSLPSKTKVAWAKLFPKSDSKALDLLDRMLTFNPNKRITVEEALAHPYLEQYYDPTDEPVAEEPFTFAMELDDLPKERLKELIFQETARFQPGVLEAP
# Sequence of CDK1/cyclin B (P06493 whole entry, species assumed): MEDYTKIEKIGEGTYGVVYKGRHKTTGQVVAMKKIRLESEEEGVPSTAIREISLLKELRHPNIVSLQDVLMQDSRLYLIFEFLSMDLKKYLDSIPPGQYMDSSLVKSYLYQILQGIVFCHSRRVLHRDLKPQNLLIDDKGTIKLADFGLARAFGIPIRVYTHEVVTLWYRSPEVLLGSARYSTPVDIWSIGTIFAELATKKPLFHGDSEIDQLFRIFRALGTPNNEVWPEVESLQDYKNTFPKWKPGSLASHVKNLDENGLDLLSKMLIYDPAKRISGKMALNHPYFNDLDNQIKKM
# Sequence of CDK1/cyclin B (P14635 whole entry partner, species assumed): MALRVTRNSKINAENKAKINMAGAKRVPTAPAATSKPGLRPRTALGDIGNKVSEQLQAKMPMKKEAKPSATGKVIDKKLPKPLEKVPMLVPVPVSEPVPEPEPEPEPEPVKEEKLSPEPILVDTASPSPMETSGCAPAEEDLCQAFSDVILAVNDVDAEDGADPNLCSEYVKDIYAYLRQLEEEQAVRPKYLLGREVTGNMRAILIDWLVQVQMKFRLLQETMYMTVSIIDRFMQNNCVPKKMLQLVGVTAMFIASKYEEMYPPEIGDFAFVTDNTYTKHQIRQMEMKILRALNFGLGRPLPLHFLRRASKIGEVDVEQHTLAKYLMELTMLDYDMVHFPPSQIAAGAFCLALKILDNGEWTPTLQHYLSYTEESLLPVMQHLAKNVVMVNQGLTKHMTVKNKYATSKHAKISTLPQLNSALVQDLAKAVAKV
# Sequence of BTK (Q06187 whole entry, species assumed): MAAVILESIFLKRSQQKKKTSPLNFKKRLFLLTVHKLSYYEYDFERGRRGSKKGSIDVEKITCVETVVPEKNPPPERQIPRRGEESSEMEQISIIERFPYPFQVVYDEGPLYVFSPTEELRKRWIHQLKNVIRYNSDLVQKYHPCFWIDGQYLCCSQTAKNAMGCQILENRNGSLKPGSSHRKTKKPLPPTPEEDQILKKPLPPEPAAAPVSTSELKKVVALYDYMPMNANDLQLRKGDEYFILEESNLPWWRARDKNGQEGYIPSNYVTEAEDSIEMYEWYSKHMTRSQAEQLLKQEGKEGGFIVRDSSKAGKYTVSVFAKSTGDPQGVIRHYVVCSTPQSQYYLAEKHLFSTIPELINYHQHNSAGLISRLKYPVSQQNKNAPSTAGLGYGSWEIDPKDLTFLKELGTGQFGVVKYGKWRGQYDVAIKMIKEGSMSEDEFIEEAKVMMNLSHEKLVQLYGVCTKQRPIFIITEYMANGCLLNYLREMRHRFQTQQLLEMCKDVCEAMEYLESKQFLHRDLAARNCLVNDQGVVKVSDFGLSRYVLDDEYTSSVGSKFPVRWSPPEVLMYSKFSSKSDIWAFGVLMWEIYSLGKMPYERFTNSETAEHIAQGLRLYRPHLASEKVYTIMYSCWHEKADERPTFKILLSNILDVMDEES
Compound,inhibition at 10 µM (MAPK3 (ERK1)) [%],inhibition at 10 µM (DYRK3) [%],inhibition at 10 µM (SYK) [%],inhibition at 10 µM (AKT1 (PKB alpha)) [%],inhibition at 10 µM (MAP4K4 (HGK)) [%],inhibition at 10 µM (BTK) [%],inhibition at 10 µM (CDK1/cyclin B) [%],inhibition at 10 µM (PAK4) [%],inhibition at 10 µM (IGF1R) [%]
CN(C)CCNC(=O)OC[C@H]1O[C@@H](n2cnc3c(N)ncnc32)[C@H](O)[C@@H]1O [Compound C85],2,7,-1,4,-8,0,3,1,8
CS(=O)(=O)N1CC2(CCN(C(=O)OC[C@H]3O[C@@H](n4cnc5c(N)ncnc54)[C@H](O)[C@@H]3O)CC2)c2ccccc21 [Compound C98],8,5,2,2,68,16,8,7,8
N#CCCN1CCN(C(=O)OC[C@H]2O[C@@H](n3cnc4c(N)ncnc43)[C@H](O)[C@@H]2O)CC1 [Compound C70],4,6,-1,8,-5,1,4,4,1
Nc1ncnc2c1ncn2[C@@H]1O[C@H](COC(=O)NCCCc2nc3ccccc3[nH]2)[C@@H](O)[C@H]1O [Compound C1],5,12,3,-2,17,9,-2,15,0
CN1CCN(CCNC(=O)OC[C@H]2O[C@@H](n3cnc4c(N)ncnc43)[C@H](O)[C@@H]2O)CC1 [Compound C46],2,4,0,4,13,0,7,4,7
Nc1ncnc2c1ncn2[C@@H]1O[C@H](COC(=O)N2CCC(Cc3ccc(F)cc3)C2)[C@@H](O)[C@H]1O (stereo partly drawn) [Compound C66],-2,7,1,-1,1,11,11,10,1
Nc1ncnc2c1ncn2[C@@H]1O[C@H](COC(=O)N2CCC[C@H]2CO)[C@@H](O)[C@H]1O [Compound C9],5,11,-4,3,-2,9,3,1,9
Nc1ncnc2c1ncn2[C@@H]1O[C@H](COC(=O)NCCN2CCCC2=O)[C@@H](O)[C@H]1O [Compound C22],1,3,-8,0,17,-1,7,7,4
